Work on `CCCCCS(=O)(=O)NC(=O)CCc1ccc(OCCOC)cc1Oc1ccccc1` [Example 219, 3-[4-(2-methoxyethoxy)-2-phenoxyphenyl]-N-(pentylsulfonyl)propanamide] yielded a melting point of 70.4 to 70.5 °C.
Work on `C/C(=C\c1ccc(OC(C)C)cc1Oc1ncc(C(F)(F)F)cc1Cl)C(=O)NS(=O)(=O)NCCc1ccccc1` [Example 220, (2E)-3-(2-{[3-chloro-5-(trifluoromethyl)pyridin-2-yl]oxy}-4-isopropoxyphenyl)-2-methyl-N-{[(2-phenylethyl)amino]sulfonyl}acrylamide] yielded a melting point of 147 to 147.5 °C.
Compound `COCCCNS(=O)(=O)NC(=O)/C(C)=C/c1ccc(OC(C)C)cc1Oc1ncc(C(F)(F)F)cc1Cl` [Example 221, (2E)-3-(2-{[3-chloro-5-(trifluoromethyl)pyridin-2-yl]oxy}-4-isopropoxyphenyl)-N-{[(3-methoxypropyl)amino]sulfonyl}-2-methylacrylamide] has a melting point of 120 to 121 °C.
`C/C(=C\c1ccc(OC(C)C)cc1Oc1ncc(C(F)(F)F)cc1Cl)C(=O)NS(=O)(=O)NCCOC(C)C` [Example 222, (2E)-3-(2-{[3-chloro-5-(trifluoromethyl)pyridin-2-yl]oxy}-4-isopropoxyphenyl)-N-{[(2-isopropoxyethyl)amino]sulfonyl}-2-methylacrylamide] showed a melting point of 137.5 to 137.7 °C.
In the case of `COCCCNS(=O)(=O)NC(=O)/C(C)=C/c1ccc(OCCOC)cc1Oc1ncc(C(F)(F)F)cc1Cl` [Example 227, (2E)-3-[2-{[3-chloro-5-(trifluoromethyl)pyridin-2-yl]oxy}-4-(2-methoxyethoxy)phenyl]-N-{[(3-methoxypropyl)amino]sulfonyl}-2-methylacrylamide], the melting point is reported as 121 to 122 °C.
Compound `COCCOc1ccc(/C=C/C(=O)NS(=O)(=O)NCCc2ccccc2)c(Oc2ncc(C(F)(F)F)cc2Cl)c1` [Example 228, (2E)-3-[2-{[3-chloro-5-(trifluoromethyl)pyridin-2-yl]oxy}-4-(2-methoxyethoxy)phenyl]-N-{[(2-phenylethyl)amino]sulfonyl}acrylamide] has a melting point of 85 to 85.5 °C.
`COCCOc1ccc(/C=C/C(=O)NS(=O)(=O)c2ccc(Cl)cc2)c(Oc2ncc(C(F)(F)F)cc2Cl)c1` [Example 229, (2E)-N-[(4-chlorophenyl)sulfonyl]-3-[2-{[3-chloro-5-(trifluoromethyl)pyridin-2-yl]oxy}-4-(2-methoxyethoxy)phenyl]acrylamide] showed a melting point of 182 to 182.5 °C.
For `COCCOc1ccc(/C=C(\C)C(=O)NS(=O)(=O)c2ccc(Cl)cc2)c(Oc2ncc(C(F)(F)F)cc2Cl)c1` [Example 230, (2E)-N-[(4-chlorophenyl)sulfonyl]-3-[2-{[3-chloro-5-(trifluoromethyl)pyridin-2-yl]oxy}-4-(2-methoxyethoxy)phenyl]-2-methylacrylamide], the melting point was 145.7 to 145.8 °C.
Work on `C/C(=C\c1ccc(OC(C)C)cc1Oc1ncc(C(F)(F)F)cc1Cl)C(=O)NS(=O)(=O)NCC1CCCO1` (centres unmarked) [Example 231, (2E)-3-(2-{[3-chloro-5-(trifluoromethyl)pyridin-2-yl]oxy}-4-isopropoxyphenyl)-2-methyl-N-{[(tetrahydrofuran-2-ylmethyl)amino]sulfonyl}acrylamide] yielded a melting point of 125.3 to 126.5 °C.
For `COCCOc1ccc(/C=C/C(=O)NS(=O)(=O)c2cccc(Cl)c2)c(Oc2ncc(C(F)(F)F)cc2Cl)c1` [Example 232, (2E)-N-[(3-chlorophenyl)sulfonyl]-3-[2-{[3-chloro-5-(trifluoromethyl)pyridin-2-yl]oxy}-4-(2-methoxyethoxy)phenyl]acrylamide], the melting point was 157 to 158 °C.
`COCCOc1ccc(/C=C/C(=O)NS(=O)(=O)c2ccc(C(F)(F)F)cc2)c(Oc2ncc(C(F)(F)F)cc2Cl)c1` [Example 234, (2E)-3-[2-{[3-chloro-5-(trifluoromethyl)pyridin-2-yl]oxy}-4-(2-methoxyethoxy)phenyl]-N-{[4-(trifluoromethyl)phenyl]sulfonyl}acrylamide] gave a melting point of 186.3 to 186.5 °C.
Compound `COCCOc1ccc(/C=C/C(=O)NS(=O)(=O)c2ccccc2Cl)c(Oc2ncc(C(F)(F)F)cc2Cl)c1` [Example 235, (2E)-N-[(2-chlorophenyl)sulfonyl]-3-[2-{[3-chloro-5-(trifluoromethyl)pyridin-2-yl]oxy}-4-(2-methoxyethoxy)phenyl]acrylamide] has a melting point of 168 to 169 °C.
For `COCCOc1ccc(/C=C/C(=O)NS(=O)(=O)c2ccc(C)cc2)c(Oc2ncc(C(F)(F)F)cc2Cl)c1` [Example 236, (2E)-3-[2-{[3-chloro-5-(trifluoromethyl)pyridin-2-yl]oxy}-4-(2-methoxyethoxy)phenyl]-N-[(4-methylphenyl)sulfonyl]acrylamide], the melting point was 102.5 to 106.5 °C.
`COCCOc1ccc(/C=C/C(=O)NS(=O)(=O)c2ccc(F)cc2)c(Oc2ncc(C(F)(F)F)cc2Cl)c1` [Example 237, (2E)-3-[2-{[3-chloro-5-(trifluoromethyl)pyridin-2-yl]oxy}-4-(2-methoxyethoxy)phenyl]-N-[(4-fluorophenyl)sulfonyl]acrylamide] showed a melting point of 183 to 184 °C.
`COCCOc1ccc(/C=C/C(=O)NS(=O)(=O)c2ccccn2)c(Oc2ncc(C(F)(F)F)cc2Cl)c1` [Example 239, (2E)-3-[2-{[3-chloro-5-(trifluoromethyl)pyridin-2-yl]oxy}-4-(2-methoxyethoxy)phenyl]-N-(pyridin-2-ylsulfonyl)acrylamide] gave a melting point of 164 to 165 °C.
In the case of `COCCOc1ccc(/C=C/C(=O)NS(=O)(=O)c2cccnc2)c(Oc2ncc(C(F)(F)F)cc2Cl)c1` [Example 240, (2E)-3-[2-{[3-chloro-5-(trifluoromethyl)pyridin-2-yl]oxy}-4-(2-methoxyethoxy)phenyl]-N-(pyridin-3-ylsulfonyl)acrylamide], the melting point is reported as 165 to 167 °C.
Compound `COCCOc1ccc(/C=C/C(=O)NS(=O)(=O)c2cccc(C)c2)c(Oc2ncc(C(F)(F)F)cc2Cl)c1` [Example 241, (2E)-3-[2-{[3-chloro-5-(trifluoromethyl)pyridin-2-yl]oxy}-4-(2-methoxyethoxy)phenyl]-N-[(3-methylphenyl)sulfonyl]acrylamide] has a melting point of 147 to 147.5 °C.
`COCCOc1ccc(/C=C/C(=O)NS(=O)(=O)C(F)(F)F)c(Oc2ncc(C(F)(F)F)cc2Cl)c1` [Example 243, (2E)-3-[2-{[3-chloro-5-(trifluoromethyl)pyridin-2-yl]oxy}-4-(2-methoxyethoxy)phenyl]N-[(trifluoromethyl)sulfonyl]acrylamide] gave a melting point of 125.5 to 128 °C.
`COCCOc1ccc(/C=C(\C)C(=O)NS(=O)(=O)CC(F)(F)F)c(Oc2ncc(C(F)(F)F)cc2Cl)c1` [Example 244, (2E)-3-[2-{[3-chloro-5-(trifluoromethyl)pyridin-2-yl]oxy}-4-(2-methoxyethoxy)phenyl]-2-methyl-N-[(2,2,2-trifluoroethyl)sulfonyl]acrylamide] gave a melting point of 159 to 159.5 °C.
Compound `COCCOc1ccc(/C=C(\C)C(=O)NS(=O)(=O)C(F)(F)F)c(Oc2ncc(C(F)(F)F)cc2Cl)c1` [Example 245, (2E)-3-[2-{[3-chloro-5-(trifluoromethyl)pyridin-2-yl]oxy}-4-(2-methoxyethoxy)phenyl]-2-methyl-N-[(trifluoromethyl)sulfonyl]acrylamide] has a melting point of 146 to 147 °C.
For `COCCOc1ccc(/C=C/C(=O)NS(=O)(=O)CC(F)(F)F)c(Oc2ncc(C(F)(F)F)cc2Cl)c1` [Example 246, (2E)-3-[2-{[3-chloro-5-(trifluoromethyl)pyridin-2-yl]oxy}-4-(2-methoxyethoxy)phenyl]-N-[(2,2,2-trifluoroethyl)sulfonyl]acrylamide], the melting point was 146 to 147.5 °C.
Compound `CCCCCS(=O)(=O)NC(=O)/C=C/c1ccc(OCCCOCCOC)cc1Oc1ncc(C(F)(F)F)cc1Cl` [Example 254, (2E)-3-{2-{[3-chloro-5-(trifluoromethyl)pyridin-2-yl]oxy}-4-[3-(2-methoxyethoxy)propoxy]phenyl}-N-(pentylsulfonyl)acrylamide] has a melting point of 103 to 105 °C.
`CCCCCS(=O)(=O)NC(=O)/C=C/c1ccc(OCCCOCC2CC2)cc1Oc1ncc(C(F)(F)F)cc1Cl` [Example 259, (2E)-3-{2-{[3-chloro-5-(trifluoromethyl)pyridin-2-yl]oxy}-4-[3-(cyclopropylmethoxy)propoxy]phenyl}-N-(pentylsulfonyl)acrylamide] gave a melting point of 124 to 125 °C.
In the case of `CCCCCS(=O)(=O)NC(=O)CCc1ccc(OCCC2(C)OCCO2)cc1Oc1ncc(C(F)(F)F)cc1Cl` [Example 425, 3-{2-{[3-chloro-5-(trifluoromethyl)pyridin-2-yl]oxy}-4-[2-(2-methyl-1,3-dioxolan-2-yl)ethoxy]phenyl}-N-(pentylsulfonyl)propanamide], the melting point is reported as 96.5 to 97.5 °C.
In the case of `COCCOc1ccc(CCCOC(=O)NS(N)(=O)=O)c(Oc2ncc(Cl)cc2Cl)c1` [Example 426, 3-[2-[(3,5-dichloropyridin-2-yl)oxy]-4-(2-methoxyethoxy)phenyl]propyl (aminosulfonyl)carbamate], the melting point is reported as 153.2 to 153.8 °C.
Compound `COCCCNS(=O)(=O)NC(=O)OCCCc1ccc(OCCOC)cc1Oc1ncc(Cl)cc1Cl` [Example 428, 3-[2-[(3,5-dichloropyridin-2-yl)oxy]-4-(2-methoxyethoxy)phenyl]propyl {[(3-methoxypropyl)amino]sulfonyl}carbamate] has a melting point of 87.9 to 89 °C.
Work on `COCCCNS(=O)(=O)NC(=O)OC/C=C/c1ccc(OCCOC)cc1Oc1ncc(C(F)(F)F)cc1Cl` [Example 432, (2E)-3-[2-{[3-chloro-5-(trifluoromethyl)pyridin-2-yl]oxy}-4-(2-methoxyethoxy)phenyl]prop-2-en-1-yl {[(3-methoxypropyl)amino]sulfonyl}carbamate] yielded a melting point of 98 to 100 °C.
`COCCOc1ccc(/C=C/COC(=O)NS(=O)(=O)NCCN2CCCC2)c(Oc2ncc(C(F)(F)F)cc2Cl)c1` [Example 434, (2E)-3-[2-{[3-chloro-5-(trifluoromethyl)pyridin-2-yl]oxy}-4-(2-methoxyethoxy)phenyl]prop-2-en-1-yl {[(2-pyrrolidin-1-ylethyl)amino]sulfonyl}carbamate] showed a melting point of 154 to 156 °C.
`COCCOc1ccc(/C=C/COC(=O)NS(=O)(=O)NCCc2ccccc2)c(Oc2ncc(C(F)(F)F)cc2Cl)c1` [Example 435, (2E)-3-[2-{[3-chloro-5-(trifluoromethyl)pyridin-2-yl]oxy}-4-(2-methoxyethoxy)phenyl]prop-2-en-1-yl {[(2-phenylethyl)amino]sulfonyl}carbamate] showed a melting point of 113 to 114 °C.

— patent US20100041892A1, “Therapeutic agent for diabetes” (priority 2005, published 2010)
